{"source": "patent US20240287080A1", "about": "(IDEAYA Biosciences Inc., priority 2021, published 2024)", "data": [{"biological_target": "T1, Pol theta (1-899) (Homo sapiens, UniProt O75417)", "T1 construct": "Pol theta (1-899) (5 nM) in assay buffer", "T1 sequence (O75417 1-899)": "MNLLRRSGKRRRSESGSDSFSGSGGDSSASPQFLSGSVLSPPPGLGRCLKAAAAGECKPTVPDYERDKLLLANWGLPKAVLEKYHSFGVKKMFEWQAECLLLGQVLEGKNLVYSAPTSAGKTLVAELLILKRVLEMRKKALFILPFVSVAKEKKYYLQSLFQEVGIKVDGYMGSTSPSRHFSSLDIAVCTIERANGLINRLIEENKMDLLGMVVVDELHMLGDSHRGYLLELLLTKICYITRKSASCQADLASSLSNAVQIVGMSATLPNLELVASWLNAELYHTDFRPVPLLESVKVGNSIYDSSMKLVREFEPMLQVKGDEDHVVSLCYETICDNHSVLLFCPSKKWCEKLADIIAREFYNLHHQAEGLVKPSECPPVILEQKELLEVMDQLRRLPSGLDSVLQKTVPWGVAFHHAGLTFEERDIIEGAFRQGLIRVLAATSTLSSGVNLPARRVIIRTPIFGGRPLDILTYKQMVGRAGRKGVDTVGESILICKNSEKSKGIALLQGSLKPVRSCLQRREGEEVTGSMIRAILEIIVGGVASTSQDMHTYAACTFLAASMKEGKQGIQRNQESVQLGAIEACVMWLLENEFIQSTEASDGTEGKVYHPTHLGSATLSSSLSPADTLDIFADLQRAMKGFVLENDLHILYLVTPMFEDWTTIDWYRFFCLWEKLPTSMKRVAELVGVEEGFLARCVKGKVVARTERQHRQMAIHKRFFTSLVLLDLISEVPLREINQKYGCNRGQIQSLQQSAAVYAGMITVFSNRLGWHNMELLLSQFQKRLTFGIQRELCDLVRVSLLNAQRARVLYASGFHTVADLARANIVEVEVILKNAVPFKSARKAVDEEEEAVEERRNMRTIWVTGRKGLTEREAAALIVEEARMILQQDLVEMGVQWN", "assay": "Pol theta ATPase activity, NADH oxidation-coupled enzymatic assay (ATPase NADH coupling: Standard Screening: hPolQ)", "type": "biochemical", "details": "Pol theta (1-899) 5 nM, NADH oxidation-coupled ATPase assay; compounds of Table 3", "experimental": "(§1) The ability of the compounds of Formula (I) or Table 1 to inhibit ATPase activity of Pol theta (1-899) was determined using the assay described below. Pol Theta ATPase activity was determined by measuring the rate of ATP turn over in a NADH oxidation-coupled enzymatic assay. 10-point dilution series of compounds were used in a 384 well format for the inhibition assays. Pol theta (1-899) (5 nM) in assay buffer (20 mM Tris HCl (pH 7.80), 80 mM KCl, 10 mM MgCl2, 1 mM DTT, 0.01% BSA, 0.01% Tween, 5% glycerol) was transferred to the test wells (20 μL), except the low control wells (20 μL of assay buffer was added to the low control wells). The plate was then incubated at room temperature for 15 min. An equal volume (20 μL) of 100 μM ATP, 300 nM […] (single-stranded DNA (ssDNA) containing 50 thymine bases), 300 μM NADH, 6 mM PEP, 10 U/mL lactate dehydrogenase and 20 U/mL pyruvate kinase in assay buffer was added to all the test wells. The plate was then centrifuged at 1000 rpm for 1 min. The reaction was monitored for 60 min by measuring absorbance (λ=340 nm) in a Tecan Spark multimode plate reader every minute. The high control (DMSO with enzyme) with low absorbance intensity represents no inhibition of ATPase reaction while the low control (DMSO with buffer) with high absorbance intensity represents full inhibition of ATPase activity. Slope of the reaction progress curves were used to calculate the rate of ATP hydrolysis. The rates were used to determine the percent inhibition using a four-parameter inhibition model to generate IC50, Hill slope and max inhibition.", "units": {"IC50": "µM"}, "values": [{"smiles": "COc1nnc(NC(=O)c2cnc(C)cc2-c2ccnc(C(F)(F)F)c2)s1", "note": "[Example 467, N-(5-methoxy-1,3,4-thiadiazol-2-yl)-6-methyl-2′-(trifluoromethyl)-[4,4′-bipyridine]-3-carboxamide]", "IC50": "0.5 to 1"}, {"smiles": "COc1cnc(C)c(F)c1-c1cc(C)ncc1C(=O)Nc1nnc(O[C@@H]2CCC[C@H](O)C2)s1", "note": "(single isomer, unassigned) [Example 255]", "IC50": "≤ 0.2"}, {"smiles": "COc1nnc(NC(=O)c2cnc(C)cc2-c2cccc(C(=O)NC3CC3)c2)s1", "note": "[Example 344, 4-[3(cyclopropylcarbamoyl)phenyl]-N-(5-methoxy-1,3,4-thiadiazol-2-yl)-6-methylpyridine-3carboxamide]", "IC50": "1 to 10"}, {"smiles": "COc1nnc(NC(=O)c2cnc(C)cc2-c2ccc3c(c2)C(=O)NC3)s1", "note": "[Example 332, N-(5-methoxy-1,3,4-thiadiazol-2-yl)-6-methyl-4-(3-oxo-2,3-dihydro-1H-isoindol-5-yl)pyridine-3-carboxamide]", "IC50": "1 to 10"}, {"smiles": "COc1nnc(NC(=O)c2cc(F)c(C)cc2-c2cc(Cl)ncc2OC)s1", "note": "[Example 282, 2-(2-chloro-5-methoxypyridin-4-yl)-5-fluoro-N-(5-methoxy-1,3,4-thiadiazol-2-yl)-4-methyl benzamide]", "IC50": "≤ 0.2"}, {"smiles": "COc1nnc(NC(=O)c2cnc(C)cc2-c2ccc(OC)c(C#N)c2)s1", "note": "[Example 345, 4-(3-cyano-4-methoxyphenyl)-N-(5-methoxy-1,3,4-thiadiazol-2-yl)-6-methylpyridine-3-carboxamide]", "IC50": "1 to 10"}, {"smiles": "COc1nnc(NC(=O)c2cnc(C)cc2-c2ccc(C#N)cc2)s1", "note": "[Example 365, 4-(4-cyanophenyl)-N-(5-methoxy-1,3,4-thiadiazol-2-yl)-6-methylpyridine-3-carboxamide]", "IC50": "1 to 10"}, {"smiles": "COc1cnc(Cl)cc1-c1cc(C)ncc1C(=O)Nc1nnc(OC2([C@@H]3CCOC3)CC2)s1", "note": "(single isomer, unassigned) [Example 299]", "IC50": "≤ 0.2"}, {"smiles": "COc1nnc(NC(=O)c2ccc(F)cc2-c2cc(Cl)ncc2OC)s1", "note": "[Example 266, 2-(2-chloro-5-methoxypyridin-4-yl)-4-fluoro-N-(5-methoxy-1,3,4-thiadiazol-2-yl)benzamide]", "IC50": "≤ 0.2"}, {"smiles": "COc1cnc(Cl)cc1-c1cc(C)ncc1C(=O)Nc1nnc(O[C@@H]2C[C@H](F)CN(C)C2)s1", "note": "[Example 267, 2′-chloro-N-(5-(((3R,5S)-5-fluoro-1-methylpiperidin-3-yl)oxy)-1,3,4-thiadiazol-2-yl)-5′-methoxy-6-methyl-[4,4′-bipyridine]-3-carboxamide]", "IC50": "≤ 0.2"}, {"smiles": "COc1nnc(NC(=O)c2cnc(C)cc2-c2ccc3c(c2)CCO3)s1", "note": "[Example 380, 4-(2,3-dihydro-1-benzofuran-5-yl)-N-(5-methoxy-1,3,4-thiadiazol-2-yl)-6-methylpyridine-3-carboxamide]", "IC50": "1 to 10"}, {"smiles": "COc1nnc(NC(=O)c2ccc(C)cc2-c2cc(Cl)ncc2OC)s1", "note": "[Example 279, 2-(2-chloro-5-methoxypyridin-4-yl)-N-(5-methoxy-1,3,4-thiadiazol-2-yl)-4-methylbenzamide]", "IC50": "≤ 0.2"}, {"smiles": "COc1cnc(Cl)cc1-c1cc(C)ncc1C(=O)Nc1nnc(OC2CCCN(C3CCOC3)C2)s1", "note": "(stereo not shown) [Example 247, 2′-chloro-5′-methoxy-6-methyl-N-(5-((1-(tetrahydrofuran-3-yl)piperidin-3-yl)oxy)-1,3,4-thiadiazol-2-yl)-[4,4′-bipyridine]-3-carboxamide]", "IC50": "≤ 0.2"}, {"smiles": "COc1nnc(NC(=O)c2ccc(C#N)cc2-c2cc(Cl)ncc2OC)s1", "note": "[Example 248, 2-(2-chloro-5-methoxypyridin-4-yl)-4-cyano-N-(5-methoxy-1,3,4-thiadiazol-2-yl)benzamide]", "IC50": "≤ 0.2"}, {"smiles": "COc1nnc(NC(=O)c2cnc(C)cc2-c2cnnc(C)c2)s1", "note": "[Example 440, N-(5-methoxy-1,3,4-thiadiazol-2-yl)-6-methyl-4-(6-methylpyridazin-4-yl)nicotinamide]", "IC50": "1 to 10"}, {"smiles": "COc1nnc(NC(=O)c2cnc(C)cc2-c2cccc(F)c2)s1", "note": "[Example 421, 4-(3-fluorophenyl)-N-(5-methoxy-1,3,4-thiadiazol-2-yl)-6-methylpyridine-3-carboxamide]", "IC50": "0.5 to 1"}, {"smiles": "COc1nnc(NC(=O)c2cnc(C)cc2-c2cccc(S(N)(=O)=O)c2)s1", "note": "[Example 385, N-(5-methoxy-1,3,4-thiadiazol-2-yl)-6-methyl-4-(3-sulfamoylphenyl)pyridine-3-carboxamide]", "IC50": "1 to 10"}, {"smiles": "COc1nnc(NC(=O)c2cnc(C)cc2-c2cccc(OC)c2C#N)s1", "note": "[Example 411, 4-(2-cyano-3-methoxyphenyl)-N-(5-methoxy-1,3,4-thiadiazol-2-yl)-6-methylpyridine-3-carboxamide]", "IC50": "1 to 10"}, {"smiles": "COc1cnc(Cl)cc1-c1cc(C)ncc1C(=O)Nc1nnc(O[C@@H]2CCCN([C@@H]3CCOC3)C2)s1", "note": "[Example 264, 2′-chloro-5′-methoxy-6-methyl-N-(5-(((R)-1-((R)-tetrahydrofuran-3-yl)piperidin-3-yl)oxy)-1,3,4-thiadiazol-2-yl)-[4,4′-bipyridine]-3-carboxamide]", "IC50": "≤ 0.2"}, {"smiles": "COc1nnc(NC(=O)c2cnc(C)cc2-c2cncc(C(N)=O)c2)s1", "note": "[Example 340, N3′-(5-methoxy-1,3,4-thiadiazol-2-yl)-6′-methyl-[3,4′-bipyridine]-3′,5-dicarboxamide]", "IC50": "1 to 10"}, {"smiles": "COc1nnc(NC(=O)c2cnc(C)cc2-c2cccc(F)c2C#N)s1", "note": "[Example 430, 4-(2-cyano-3-fluorophenyl)-N-(5-methoxy-1,3,4-thiadiazol-2-yl)-6-methylpyridine-3-carboxamide]", "IC50": "0.5 to 1"}, {"smiles": "COc1nnc(NC(=O)c2cnc(C)cc2-c2cc(C#N)cc(OC(F)(F)F)c2)s1", "note": "[Example 327, 4-[3-cyano-5-(trifluoromethoxy)phenyl]-N-(5-methoxy-1,3,4-thiadiazol-2-yl)-6-methylpyridine-3-carboxamide]", "IC50": "1 to 10"}, {"smiles": "COc1nnc(NC(=O)c2cc(-c3cc(Cl)ncc3OC)ncc2C)s1", "note": "[Example 285, 2′-chloro-5′-methoxy-N-(5-methoxy-1,3,4-thiadiazol-2-yl)-5-methyl-[2,4′-bipyridine]-4-carboxamide]", "IC50": "1 to 10"}]}, {"biological_target": "T1, Pol theta (1-899)", "assay": "Pol theta ATPase activity, NADH oxidation-coupled enzymatic assay (ATPase NADH coupling: Standard Screening: hPolQ)", "type": "biochemical", "details": "Table 4; Pol theta (1-899) 5 nM, ATP, dT50 ssDNA", "experimental": "as §1", "units": {"IC50": "µM"}, "values": [{"smiles": "COc1nnc(NC(=O)c2cnc(C)cc2-c2ccccc2OC)s1", "note": "[Example 54, N-(5-methoxy-1,3,4-thiadiazol-2-yl)-4-(2-methoxyphenyl)-6-methylnicotinamide]", "IC50": "0.5 to 1"}, {"smiles": "COc1nnc(NC(=O)c2cnc(C)cc2-c2c(F)cccc2Cl)s1", "note": "[Example 38, 4-(2-chloro-6-fluorophenyl)-N-(5-methoxy-1,3,4-thiadiazol-2-yl)-6-methylnicotinamide]", "IC50": "≤ 0.2"}, {"smiles": "COc1nnc(NC(=O)c2cnc(C)cc2-c2cc(Cl)ncc2CO)s1", "note": "[Example 72, 2′-chloro-5′-(hydroxymethyl)-N-(5-methoxy-1,3,4-thiadiazol-2-yl)-6-methyl-(4,4′-bipyridine)-3-carboxamide]", "IC50": "0.5 to 1"}, {"smiles": "COc1nnc(NC(=O)c2cnc(C)cc2-c2cc([C@@H](C)O)ncc2OC)s1", "note": "(single isomer, unassigned) [Example 69]", "IC50": "1 to 10"}, {"smiles": "COc1cnc(Cl)cc1-c1cc(C)ncc1C(=O)Nc1nnc(O[C@@H]2CCOC2)s1", "note": "[Example 23, (R)-2′-chloro-5′-methoxy-6-methyl-N-(5-((tetrahydrofuran-3-yl)oxy)-1,3,4-thiadiazol-2-yl)-(4,4′-bipyridine)-3-carboxamide]", "IC50": "≤ 0.2"}, {"smiles": "COc1nnc(NC(=O)c2cnc(C)cc2-c2cc3[nH]cnc3cc2OC)s1", "note": "[Example 71, N-(5-methoxy-1,3,4-thiadiazol-2-yl)-4-(5-methoxy-1H-benzo(d)imidazol-6-yl)-6-methylnicotinamide]", "IC50": "1 to 10"}]}, {"biological_target": "T1, Pol theta (1-899)", "assay": "Pol theta ATPase activity, NADH oxidation-coupled enzymatic assay (ATPase NADH coupling: Standard Screening: hPolQ)", "type": "biochemical", "details": "Table 5; Pol theta (1-899) 5 nM, ATP, dT50 ssDNA", "experimental": "as §1", "units": {"IC50": "µM"}, "values": [{"smiles": "COc1cnc(Cl)cc1-c1cc(C)ncc1C(=O)Nc1nnc(O[C@H]2CC[C@H]([C@H](C)O)CC2)s1", "note": "(single isomer, unassigned) [Example 200]", "IC50": "≤ 0.2"}, {"smiles": "COc1cnc(Cl)cc1-c1cc(C)ncc1C(=O)Nc1nnc(O[C@H]2CC[C@H](OC)CC2)s1", "note": "(single isomer, unassigned) [Example 125, 2′-chloro-5′-methoxy-N-(5-(((1r,4r)-4-methoxycyclohexyl)oxy)-1,3,4-thiadiazol-2-yl)-6-methyl-(4,4′-bipyridine)-3-carboxamide]", "IC50": "≤ 0.2"}, {"smiles": "COc1cnc(Cl)c(F)c1-c1cc(C)ncc1C(=O)Nc1nnc(O[C@@H]2CCC[C@@H](O)C2)s1", "note": "(single isomer, unassigned) [Example 157]", "IC50": "≤ 0.2"}, {"smiles": "COc1cnc(Cl)c(F)c1-c1cc(C)ncc1C(=O)Nc1nnc(O[C@@H]2CCC[C@H](O)C2)s1", "note": "(single isomer, unassigned) [Example 155]", "IC50": "≤ 0.2"}]}, {"biological_target": "T1, Pol theta (1-899)", "assay": "Pol theta ATPase activity, NADH oxidation-coupled enzymatic assay (ATPase NADH coupling: Standard Screening: hPolQ)", "type": "biochemical", "details": "Table 5; values given as bound; Pol theta (1-899) 5 nM, ATP, dT50 ssDNA", "experimental": "as §1", "units": {"IC50": "µM"}, "values": [{"smiles": "COc1nnc(NC(=O)c2cnc(C)cc2-c2cccn3ncnc23)s1", "note": "[Example 123, 4-((1,2,4)triazolo(1,5-a)pyridin-8-yl)-N-(5-methoxy-1,3,4-thiadiazol-2-yl)-6-methylnicotinamide]", "IC50": "> 10"}]}]}
